Test results as given in US20110177156A1, “Sterol-Modified Amphiphilic Lipids” (priority 2007, published 2011).
Like-named read-outs stand apart in the source and are kept apart here.

Columns and labels:
phospholipase A2 (PLA2) [1] = target: T1, phospholipase A2 (PLA2) (Bos taurus, UniProt P00593); assay: Drug release by phospholipase A2 (bovine); assay type: biochemical; details: bovine PLA2, 37° C., pH 8.8, Triton X-100
T1 construct: purchased Aldrich-Sigma
Text: All PLA2s were from Aldrich-Sigma. […] The flask was placed under high vacuum overnight.

phospholipase A2 (PLA2) [2] = details: for release of all-trans retinoic acid from SML7a: pH 8.8, Triton X-100
Method: Retinoic acid was used as the model drug for the investigation of enzyme triggered drug release. The release of all-trans retinoic acid from SML7a (1-cholesteryl-2-all-trans-retinoyl-sn-glycerophosphocholine) was evaluated with phospholipase A2 (PLA2) from a variety of sources including bovine, naja mossambica, and streptomyces vialaceoruber. All PLA2s were from Aldrich-Sigma. A chloroform solution of SML7a (50 μmol) in 50 mL round-bottom flask was evaporated by the rotavapor. The flask was placed under high vacuum overnight. The lipid film was hydrated in 10 mL pH 8.8 buffer containing 20 mM Triton X-100, 10 mM CaCl2, 10 mM HEPES, and 50 mM KCl. […] Aliquots of the solution (250 μL) were preincubated at 37° C. for 10 minutes, then used for the PLA2 assay. Aliquots of PLA2 solution (25 units in 250 μL pH 8.8 buffer of 10 mM HEPES, and 50 mM KCl) were preincubated at 37° C. for 10 minutes, and mixed with the aliquots of pre-warmed solution of SML7a. At different time point, the hydrolysis samples were analyzed by TLC, and quantified by densimeter.

T1 sequence (P00593 23-145): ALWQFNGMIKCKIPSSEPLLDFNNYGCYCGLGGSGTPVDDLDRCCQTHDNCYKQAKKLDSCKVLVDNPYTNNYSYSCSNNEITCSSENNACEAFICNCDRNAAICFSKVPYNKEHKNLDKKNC

1-cholesteryl-2-all-trans-retinoyl-sn-glycerophosphocholine [SML7a]
release of all-trans retinoic acid from SML7a (phospholipase A2 (PLA2) [1]): completely release | release of all-trans retinoic acid from SML7a (phospholipase A2 (PLA2) [2]; naja mossambica PLA2, 37° C.): completely release | relative activity of the PLA2 on SML7a (phospholipase A2 (PLA2) [2]; naja mossambica PLA2 compared with the two other PLA2): highest activity | release of all-trans retinoic acid from SML7a (phospholipase A2 (PLA2) [2]; streptomyces vialaceoruber PLA2, 37° C.): completely release
